Measurements reported in ChEMBL document CHEMBL3817749, “1,3-Oxazin-6-one Derivatives and Bohemamine-Type Pyrrolizidine Alkaloids from a Marine-Derived Streptomyces spinoverrucosus” (J Nat Prod, 2016).
Calls of active or inactive are those of the source.

Experiments:
Homo sapiens = species: Homo sapiens; test: Cytotoxicity against human HCC1171 cells assessed as reduction in cell viability incubated for 96 hrs by Cell-titer Glo reagent based assay; type: functional
HCC366 = test: Cytotoxicity against human HCC366 cells assessed as reduction in cell viability incubated for 96 hrs by Cell-titer Glo reagent based assay; type: functional
Pseudomonas aeruginosa = test: Antibacterial activity against Pseudomonas aeruginosa assessed as zones of growth inhibition incubated for 24 hrs by […]; type: functional, organism-based
HCC44 = test: Cytotoxicity against human HCC44 cells assessed as reduction in cell viability incubated for 96 hrs by Cell-titer Glo reagent based assay; type: functional
A549 = test: Cytotoxicity against human A549 cells assessed as reduction in cell viability incubated for 96 hrs by Cell-titer Glo reagent based assay; type: functional
Bacillus subtilis = test: Antibacterial activity against Bacillus subtilis assessed as zones of growth inhibition incubated for 24 hrs by […]; type: functional, organism-based

CC(C)=CC(=O)NC1=CC(=O)[C@@]2(O)CC[C@H](C)N12
inactive: Activity (Homo sapiens) | Activity (HCC366) | growth inhibition (GI) (Pseudomonas aeruginosa) | Activity (HCC44) | Activity (A549) | growth inhibition (GI) (Bacillus subtilis)

CC(C)=CC(=O)NC1=CC(=O)[C@]2(C)C=C[C@H](C)N12
inactive: Activity (Homo sapiens) | Activity (HCC366) | growth inhibition (GI) (Pseudomonas aeruginosa) | Activity (HCC44) | Activity (A549) | growth inhibition (GI) (Bacillus subtilis)

CC(C)=Cc1nc(N2C(=O)CC[C@@H]2C)cc(=O)o1
inactive: Activity (Homo sapiens) | Activity (HCC366) | growth inhibition (GI) (Pseudomonas aeruginosa) | Activity (HCC44) | Activity (A549) | growth inhibition (GI) (Bacillus subtilis)

C/C=C(\C)C(=O)NC1=CC(=O)[C@]2(C)CC[C@H](C)N12
inactive: Activity (Homo sapiens) | Activity (HCC366) | growth inhibition (GI) (Pseudomonas aeruginosa) | Activity (HCC44) | Activity (A549) | growth inhibition (GI) (Bacillus subtilis)

C[C@H]1CC[C@@]2(C)C(=O)C=C(NC(=O)c3ccccc3)N12
inactive: Activity (Homo sapiens) | Activity (HCC366) | growth inhibition (GI) (Pseudomonas aeruginosa) | Activity (HCC44) | Activity (A549) | growth inhibition (GI) (Bacillus subtilis)

CC(C)=Cc1nc(N2C(=O)C[C@H](O)[C@@H]2C)cc(=O)o1
inactive: Activity (Homo sapiens) | Activity (HCC366) | growth inhibition (GI) (Pseudomonas aeruginosa) | Activity (HCC44) | Activity (A549) | growth inhibition (GI) (Bacillus subtilis)

CC(C)/C=C/C(=O)NC1=CC(=O)[C@]2(C)CC[C@H](C)N12
inactive: Activity (Homo sapiens) | Activity (HCC366) | growth inhibition (GI) (Pseudomonas aeruginosa) | Activity (HCC44) | Activity (A549) | growth inhibition (GI) (Bacillus subtilis)

CC(C)=CC(=O)NC1=CC(=O)[C@]2(C)[C@H](O)[C@@H](O)[C@H](C)N12
inactive: Activity (Homo sapiens) | Activity (HCC366) | growth inhibition (GI) (Pseudomonas aeruginosa) | Activity (HCC44) | Activity (A549) | growth inhibition (GI) (Bacillus subtilis)
